Where a name gives a salt, the structure may show the parent alone.
Columns and labels:
Assay in all cases: Inhibition of cancer cell proliferation (MTT)
Assay type in all cases: cell-based, human
A549 = tested on: A549
Method: (§1) A test was conducted to confirm whether the compounds obtained in the above Examples can inhibit proliferation of human colon carcinoma cell line HCT116, glioblastoma cell lines U-87MG and T98G, neuroblastoma cell lines SH-SYSY and SK-N-SH, and lung cancer cell lines A549 and NCI-H23.
(§2) HCT116, U-87MG, SH-SYSY, SK-N-SH and A549 cells were culured in DMEM medium containing 10% FBS. T98G cells were cultured in MEM medium containing 10% FBS and NCI-H23 cells were cultured in […] medium containing 10% FBS. In order to analyze an inhibition of proliferation, HCT116 cells were dispensed in 2000 cells/well into 96 well plate, and SH-SYSY, SK-N-SH, U-87MG, T98G, A549, and NCI-H23 cells were dispensed in 3000 cells/well into 96 well plate. And then, the cells were cultured at 5% CO2 and 37° C. for 16 hrs to allow the cells to attach to the wells. The compounds of the above Examples were added to each well at a concentration of 0.004, 0.013, 0.04, 0.12, 0.37, 1.1, 3.3, and 10 uM, and the culture volume was adjusted to 100 ul. A control group was treated with dimethylsulfoxide (DMSO) at the same concentration, 0.08%, as used to treat the test compounds. Afterwards, cells were cultured at 5% CO2 and 37° C. for 72 hrs. And then, 10 ul of the solution of MTT (3-(4,5-dimethylthiazol-2-yl)-2,5-diphenyltetrazolium bromide) dissolved in PBS at 5 mg/ml was added to each well to identify viable cells and the cells were cultured for further 2 hrs. The culture solution was removed, 100 ul of DMSO was added to dissolve the formed formazan and then an absorbance was measured at 535 nm. Based on the absorbance of the control cells not treated with the compounds, the amounts of the viable cells according to the concentration of the compounds were calculated. GI50 (growth inhibition 50) value which is the concentration of the compound to inhibit cancer cell proliferation by 50% was calculated using Graphpad Prism 5.0 program.

HCT116 = tested on: HCT116
Method: as §1, §2

NCI-H23 = tested on: NCI-H23
Method: as §1, §2

T98G = tested on: T98G
Method: as §1, §2

U-87MG = tested on: U-87MG
Method: as §1, §2

SMILES	GI50 (A549; Homo sapiens, A549, 72 h)	GI50 (HCT116; Homo sapiens, HCT-116, 72 h)	GI50 (NCI-H23; Homo sapiens, NCI-H23, 72 h)	GI50 (T98G; Homo sapiens, T98G, 72 h)	GI50 (U-87MG; Homo sapiens, U-87 MG, 72 h)	GI50 (A549; 72 hrs)	GI50 (HCT116; 72 hrs)	GI50 (NCI-H23; 72 hrs)	GI50 (T98G; 72 hrs)	GI50 (U-87MG; 72 hrs)
CNc1nc(-c2nc(-c3ccnc(N)c3F)ccc2O)cc(C2CCN(C)CC2)n1 [Example 59, 2′-amino-3′-fluoro-6-(2-(methylamino)-6-(1-methylpiperidin-4-yl)pyrimidin-4-yl)-[2,4′-bipyridin]-5-ol]	70 nM	40 nM	130 nM	110 nM	70 nM					
Nc1nc(-c2nc(-c3ccnc(N)c3F)ccc2O)cc(C2CCOCC2)n1 [Example 32, 2′-amino-6-(2-amino-6-(tetrahydro-2H-pyran-4-yl)pyrimidin-4-yl)-3′-fluoro-[2,4′-bipyridin]-5-ol]	80 nM	30 nM	190 nM	110 nM	100 nM					
CCCN1CCCC(c2nc(N)nc(-c3nc(-c4ccnc(N)c4F)ccc3O)c2C)C1 (stereo not shown) [Example 47, 2′-amino-6-(2-amino-5-methyl-6-(1-propylpiperidin-3-yl)pyrimidin-4-yl)-3′-fluoro-[2,4′-bipyridin]-5-ol]	1440 nM	810 nM	2230 nM	1410 nM	1090 nM					
CCCN1CCCC(c2nc(N)nc(-c3nc(-c4ccnc(N)c4F)ccc3O)c2C)C1 (stereo not shown) [Example 98, 2′-amino-6-(2-amino-5-methyl-6-(1-propylpiperidin-3-yl)pyrimidin-4-yl)-3′-fluoro-[2,4′-bipyridin]-5-ol 4hydrochloride]						1300 nM	890 nM	2060 nM	1750 nM	970 nM
CC(C)N1CCC(c2cc(-c3nc(-c4ccnc(N)c4F)ccc3O)nc(N)n2)CC1 [Example 37, 2′-amino-6-(2-amino-6-(1-isopropylpiperidin-4-yl)pyrimidin-4-yl)-3′-fluoro-[2,4′-bipyridin]-5-ol]	20 nM		60 nM	30 nM	10 nM		10 nM			
CCCc1c(-c2nc(-c3ccnc(N)c3F)ccc2O)nc(N)nc1C1CCN(C(C)C)CC1 [Example 106, 2′-amino-6-(2-amino-6-(1-isopropylpiperidin-4-yl)-5-propylpyrimidin-4-yl)-3′-fluoro-[2,4′-bipyridin]-5-ol 4hydrochloride]						820 nM	60 nM	170 nM	140 nM	90 nM
CCN1CCC(c2cc(-c3nc(-c4ccnc(N)c4F)ccc3O)nc(N)n2)CC1 [Example 35, 2′-amino-6-(2-amino-6-(1-ethylpiperidin-4-yl)pyrimidin-4-yl)-3′-fluoro-[2,4′-bipyridin]-5-ol]	20 nM	10 nM	60 nM	210 nM	30 nM					
CCCN1CCCC(c2cc(-c3nc(-c4ccnc(N)c4F)ccc3O)nc(N)n2)C1 (stereo not shown) [Example 91, 2′-amino-6-(2-amino-6-(1-propylpiperidin-3-yl)pyrimidin-4-yl)-3′-fluoro-[2,4′-bipyridin]-5-ol 4hydrochloride]						30 nM	20 nM	50 nM	70 nM	30 nM
CCCN1CCCC(c2cc(-c3nc(-c4ccnc(N)c4F)ccc3O)nc(N)n2)C1 (stereo not shown) [Example 40, 2′-amino-6-(2-amino-6-(1-propylpiperidin-3-yl)pyrimidin-4-yl)-3′-fluoro-[2,4′-bipyridin]-5-ol]		10 nM	30 nM	50 nM	20 nM	10 nM				
CCc1c(-c2nc(-c3ccnc(N)c3F)ccc2O)nc(N)nc1C1CCN(C(C)C)CC1 [Example 105]						60 nM	30 nM	90 nM	60 nM	40 nM
CN1CCCC(c2cc(-c3nc(-c4ccnc(N)c4F)ccc3O)nc(N)n2)C1 (stereo not shown) [Example 38, 2′-amino-6-(2-amino-6-(1-methylpiperidin-3-yl)pyrimidin-4-yl)-3′-fluoro-[2,4′-bipyridin]-5-ol]	5 nM	2 nM	20 nM	20 nM	4 nM					

Reference: patent US20200190062A1, “HETEROCYCLIC COMPOUND AND PHARMACEUTICAL COMPOSITION COMPRISING SAME” (BEYONDBIO INC., priority 2015, published 2020)
